Measured values reported in patent US7125891B2, “Tripeptidyl peptidase inhibitors” (Janssen Pharmaceutica N.V., priority 2000, dated 2006).
Structures can show the parent of a compound that is named as a salt.

Q: For `CCCc1cnc(C2Cc3ccccc3N2C(=O)C(N)CC)[nH]1` (stereo not drawn) (as salt: HCl) (hydrate or solvate) [Compound 15, [2S-[1(R*),2R*]]-α-ethyl-2,3-dihydro-β-oxo-2-(4-propyl-1H-imidazol-2-yl)-1H-indole-1-ethanamine dihydrochloride dihydrate], which melting point is on record?
A: 132 to 140 °C

Q: For `CCCc1nc(C2Cc3ccccc3N2C(C)=O)no1` (stereo not shown), which melting point is on record?
A: 93 to 94 °C

Q: For `CCc1cnc(C2Cc3ccccc3N2C(=O)Nc2ccccc2N)[nH]1` (stereo not shown) (as salt: trifluoroacetate), which melting point is on record?
A: 106 to 108 °C

Q: For `CCc1cn(C)c(C2Cc3ccccc3N2C(C)=O)n1` (stereo not shown), which melting point is on record?
A: 105 to 106 °C

Q: With `CCCc1cnc(C2Cc3ccccc3N2C(=O)C(C)N(C)C(=O)OC(C)C)[nH]1` (stereo not shown) as the compound, how does the melting point read?
A: 77 to 80 °C

Q: For `CCc1cnc(C2Cc3ccccc3N2C(=O)c2ccccc2C(=O)O)[nH]1` (stereo not shown) (as salt: trifluoroacetate), which melting point is on record?
A: 98 to 103 °C

Q: With `CCc1cnc(C2Cc3ccccc3N2C(=O)Nc2ccccc2[N+](=O)[O-])[nH]1` (stereo not shown) as the compound, how does the melting point read?
A: 208 to 209 °C

Q: With `CCCc1cnc(C2Cc3ccccc3N2C(C)=O)[nH]1` (stereo not shown) as the compound, how does the melting point read?
A: 174 to 175 °C

Q: For `CCCc1nc(C2Cc3ccccc3N2C(=O)CN)no1` (stereo not drawn) (as salt: trifluoroacetate) [Compound 90, 2,3-dihydro-β-oxo-2-(5-propyl-1,2,4-oxadiazol-3-yl)-1H-indole-1-ethanamine trifluoroacetate (1:1)], which melting point is on record?
A: 160 to 162 °C

Q: With `NCC(=O)N1c2ccccc2CC1c1nc2cc(C(=O)O)ccc2[nH]1` (stereo not shown) (as salt: trifluoroacetate) (hydrate or solvate) [Compound 62, 2-[1-(aminoacetyl)-2,3-dihydro-1H-indol-2-yl]-1H-benzimidazole-5-carboxylic acid monohydrate trifluoroacetate (1:2)] as the compound, how does the melting point read?
A: 208 to 211 °C
